From patent publication US20080132505A1 (Glaxo Group Limited, priority 2004, published 2008)

Biological target: human cannabinoid CB2 receptor (Homo sapiens, UniProt P34972)
Assay: Cannabinoid CB2 receptor agonist activity (yeast reporter assay, FDGlu fluorescence)
Type: cell-based
Details: for EC50: EC50 value at the cloned human cannabinoid CB2 receptor; for Emax: read-out: efficacy value (Emax relative to HU210) at the cloned human cannabinoid CB2 receptor
Method in brief: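 S. cerevisiae MMY23 expressing human CB2 with a Gpa1/Gαi3 chimeric G-protein, grown 24 h at 30 °C with agonist (1% DMSO) in selective media containing 10 mM 3-aminotriazole and FDGlu, pH 7.0. Fluorescein fluorescence (485/535 nm) fitted by four-parameter curve; Emax and EMR relative to HU210.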

Chain of human cannabinoid CB2 receptor (P34972 whole entry): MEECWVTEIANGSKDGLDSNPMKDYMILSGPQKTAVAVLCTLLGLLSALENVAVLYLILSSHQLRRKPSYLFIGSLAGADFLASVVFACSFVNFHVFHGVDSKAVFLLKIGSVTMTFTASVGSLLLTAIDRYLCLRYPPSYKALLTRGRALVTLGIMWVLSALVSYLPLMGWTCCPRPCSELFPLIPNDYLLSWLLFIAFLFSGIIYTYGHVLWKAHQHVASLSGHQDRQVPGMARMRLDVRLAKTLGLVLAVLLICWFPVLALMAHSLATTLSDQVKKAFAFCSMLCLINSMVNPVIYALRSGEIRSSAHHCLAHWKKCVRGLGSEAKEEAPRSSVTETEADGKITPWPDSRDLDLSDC

Row | SMILES | EC50 [nM] | Emax [%]
1 | O=C(NCC1CCOCC1)c1cnc(Nc2ccc(C(F)(F)F)cc2Cl)nc1C(F)(F)F [Example 236, 2-(2-Chloro-4-trifluoromethyl-phenylamino)-4-trifluoromethyl-pyrimidine-5-carboxylic acid (tetrahydro-pyran-4-ylmethyl)-amide] | 20 to 300 | > 50
2 | N#Cc1ccc(Nc2ncc(C(=O)NCC3CCCCC3)c(C(F)(F)F)n2)c(Cl)c1 [Example 237, 2-(2-Chloro-4-cyano-phenylamino)-4-trifluoromethyl-pyrimidine-5-carboxylic acid cyclohexylmethyl-amide] | 20 to 300 | > 50
3 | O=C(NCC1CCCCC1)c1cnc(Nc2ccc(Cl)cc2Br)nc1C(F)(F)F [Example 238, 2-(2-Bromo-4-chloro-phenylamino)-4-trifluoromethyl-pyrimidine-5-carboxylic acid cyclohexylmethyl-amide] | 20 to 300 | > 50
4 | O=C(NCC1CCOCC1)c1cnc(Nc2ccc(Cl)cc2Br)nc1C(F)(F)F [Example 239, 2-(2-Bromo-4-chloro-phenylamino)-4-trifluoromethyl-pyrimidine-5-carboxylic acid (tetrahydro-pyran-4-ylmethyl)-amide] | 20 to 300 | > 50
5 | O=C(NCC1CC1)c1cnc(Nc2cccc(Br)c2)nc1C(F)(F)F [Example 240, 2-(3-Bromophenylamino)-4-trifluoromethyl-pyrimidine-5-carboxylic acid cyclopropylmethyl-amide] | 20 to 300 | > 50
6 | O=C(NCC1CC1)c1cnc(Nc2ccc(Cl)cc2Cl)nc1C(F)(F)F [Example 241, 2-(2,4-Dichlorophenylamino)-4-trifluoromethylpyrimidine-5-carboxylic acid cyclopropylmethyl-amide] | 20 to 300 | > 50
7 | O=C(NCC1CCCCC1)c1cnc(Nc2cccc(F)c2F)nc1C(F)(F)F [Example 242, 2-(2,3-Difluorophenylamino)-4-trifluoromethyl-pyrimidine-5-carboxylic acid cyclohexylmethyl-amide] | 20 to 300 | > 50
8 | O=C(NCC1CCCCC1)c1cnc(Nc2cccc(C(F)(F)F)c2F)nc1C(F)(F)F [Example 243, 2-(2-Fluoro-3-trifluoromethyl-phenylamino)-4-trifluoromethyl-pyrimidine-5-carboxylic acid cyclohexylmethyl-amide] | 20 to 300 | > 50
9 | Cc1ccc(Nc2ncc(C(=O)NCC3CCCCC3)c(C(F)(F)F)n2)c(Cl)c1 [Example 244, 2-(2-Chloro-4-methylphenylamino)-4-trifluoromethyl-pyrimidine-5-carboxylic acid cyclohexylmethyl-amide] | 20 to 300 | > 50
10 | COc1cc(Nc2ncc(C(=O)NCC3CCCCC3)c(C(F)(F)F)n2)ccc1Cl [Example 245, 2-(4-Chloro-3-methoxyphenylamino)-4-trifluoromethyl-pyrimidine-5-carboxylic acid cyclohexylmethyl-amide] | 20 to 300 | > 50
11 | Cc1ccc(Cl)cc1Nc1ncc(C(=O)NCC2CCCCC2)c(C(F)(F)F)n1 [Example 246, 2-(5-Chloro-2-methylphenylamino)-4-trifluoromethyl-pyrimidine-5-carboxylic acid cyclohexylmethyl-amide] | 20 to 300 | > 50
12 | O=C(NCC1CCCC1)c1cnc(Nc2cccc(Cl)c2F)nc1C(F)(F)F [Example 248, 2-(3-Chloro-2-fluoro-phenylamino)-4-trifluoromethyl-pyrimidine-5-carboxylic acid cyclopentylmethyl-amide] | 20 to 300 | > 50
13 | O=C(NCC1CCCC1)c1cnc(Nc2cc(F)ccc2Cl)nc1C(F)(F)F [Example 249, 2-(2-Chloro-5-fluoro-phenylamino)-4-trifluoromethyl-pyrimidine-5-carboxylic acid cyclopentylmethyl-amide] | 20 to 300 | > 50
